Where two headings read alike, the source gives them in different places.
How the values were obtained:
Type in all cases: cell-based, human
[1] = tested on: AhR (CYP1B1 target gene expression) in MEPs; assay: Quantitative RT-PCR of AhR target gene CYP1B1 in MEPs
Method: (§1) 6-formylindolo[3,2-b]carbazole (FICZ), an AHR small molecule agonist, and CH223191, an AHR competitive inhibitor were used for these assays. CH223191 was added to mesoderm cultures at Day 6 at 5 μM (lx) and 2.504 (0.5×). 0.2 μM FICZ was added to cultures at Day 7 and media was added daily. DMSO was used as a vehicle control.
(§2) RNA was extracted using the RNeasy kit (Qiagen) according to the manufacturer's instructions and DNase treated using the DNA-free kit (Ambion AM1906). Reverse transcription into cDNA was performed using the High Capacity cDNA Reverse Transcription Kit (Applied Biosystems 4368814). Quantitative (real time) PCR amplification of cDNA was performed using Taqman probes for AHR (Hs00169233 ml), CYP1B1 (Hs002382916 sl), HBA (Hs00361191 gl), HBB (Hs00758889 sl), HBG (Hs01629437 sl), vWF (Hs00169795 ml), PF4 (Hs00427220 gl), NF-E2 (Hs00232351 ml) and CD62P (Hs00927900 ml) and run on the Applied Biosystems StepOne machine. Relative gene expression was normalized to B-actin (Hs99999903 ml).
To characterize AhR expression and functionality in both undifferentiated iPSCs and directly differentiated MEPs, AhR protein levels were determined via Western blot in these populations. […] To test this hypothesis, the ability of FICZ to induce a prototypic AhR-target gene, CYPIB1, in iPSCs or, as a positive control, MEPs was assessed by quantitative RT-PCR.

[2] = tested on: AhR (CYP1B1 target gene expression) in iPSCs; assay: Quantitative RT-PCR of AhR target gene CYP1B1 in iPSCs
Method: as §2, with “Relative gene expression was normalized to B-actin (Hs99999903 ml).” left out
To characterize AhR expression and functionality in both undifferentiated iPSCs and directly differentiated MEPs, AhR protein levels were determined via Western blot in these populations. AhR receptor was robustly expressed in day 30 and day 60 MEPs (FIG. 4A). However, AhR protein was not detected by western blotting in iPSC populations, and we postulated that AhR was expressed at extremely low levels in iPSCs, i.e., below the level of detectability with the antibodies used for Western blots. To test this hypothesis, the ability of FICZ to induce a prototypic AhR-target gene, CYPIB1, in iPSCs or, as a positive control, MEPs was assessed by quantitative RT-PCR.

iPSC-derived MEPs [3] = assay: Live versus dead cell FACS (propidium iodide vs. Hoechst) of MEPs; conditions: pre-treated for 24 hours with 5 μM CH223191 before FICZ
Method: as §1
(§3) Roughly 10^5 cells were collected, spun, and re-suspended in 0.5% BSA in PBS. Samples were incubated for 30 min at ambient temperature with human antibodies including CD41a-FITC (BD 555466), CD235-PE (BD 555570), CD71-FITC (BD 555536), washed and spun at 3300 rpm for 7 min, and re-suspended in 0.5% BSA in PBS with 1 ug/ml Propidium Iodide. Samples were run on a BD FACScalibur using Cellquest Pro software and analyzed via FloJo 8.7. For ploidy analysis, cells were treated with 1.5% NP-40 (Boston Bioproducts P-872) and 62.5 ug/ml Propidium Iodide in PBS immediately before FACScalibur interrogation. For murine bone marrow, samples were first incubated for 5 min at ambient temperature with murine conjugated antibody CD16/32 (BD 553142) before a 30 min incubation with c-Kit-PE (BD 553355), CD41a-FITC (BD 553848), Ter119-PE (BD 553673). For cell viability assays, 2-3×10 ^5 cells were collected, re-suspended in 8.8 ug/ml Hoecsht 33342 in PBS supplemented with 5% FBS. Samples were then incubated in the dark at 37° C. for 15 min, washed, and re-suspended in 1 ug/ml Propidium Iodide in 5% FBS. Samples were run on an LSR-II machine with FACSDiva software and analyzed via FloJo 8.7.
In order to determine whether FICZ-mediated transactivation of the AhR receptor was responsible for the exponential expansion of iPSC-derived MEPs, the previously described Hoecsht/Propidium Iodide apoptosis assay was performed using the known AhR inhibitor CH223191. As previously shown in FIG. 3, fewer cells stained with propidium iodide after FICZ treatment (e.g., 15.5% vs. 8.09%) (FIG. 5E). […] The efficacy of the CH223191 was confirmed by its ability to block CY1^31B1 induction as assayed by qRT-PCR (FIG. 5F).

iPSC-derived MEPs [4] = assay: Growth / expansion of MEP cultures (manual counts, trypan blue exclusion)
Method: Plots were gated first in FSC vs. SSC and then from that population for PI ‘ and PE Hoechst’. […] (B) Representative phase contrast images of MEP population+FICZ. (C) Growth curve of day 15 MEPs+/−[…] FICZ. Cells were counted manually using trypan blue exclusion. Graphical data and the associated statistics are the result of three independent experiments per group.
High passage iPSCs were plated onto matrigel coated 6-well plates in iPSC media conditioned on iMEFs for 24 hours and supplemented with 2 ng/ml Rho Kinase Inhibitor and 20 ng/ml bFGF. After two days, iPSC media was replaced with Mesoderm DO-1 media: RPMI (Invitrogen A1049101) supplemented with 5 ng/mlhBMP-4 (R&D 314-BP-010), 50 ng/ml hVEGF (R&D 293-VE-010), 25 ng/mlhWnt3a (R&D 287-TC-500) and 10% KOSR. At Day 2, Mesoderm DO-1 media was replaced with Mesoderm D2 media: RPMI supplemented with 5 ng/ml hBMP-4, 50 ng/mlhVEGF, 20 ng/ml bFGF and 10% KOSR. Mesoderm D3 media consisted of the following: StemPro 34 (Invitrogen 10639011), 5 ng/ml hBMP-4, 50 ng/mlhVEGF, and 20 ng/ml bFGF. Mesoderm media for days 4 and 5 consisted of: StemPro 34, 15 ng/mlhVEGF, and 5 ng/ml bFGF. Day 6 mesoderm media: 74% IMDM (Invitrogen 12330061), 24% Hams F12 (Mediatech 10-080-CV), 1% B27 supplement (Invitrogen 12587-010), 0.5% N2-supplement (Invitrogen 17502-048), 0.5% BSA (Sigma A3059), 50 ng/ml hVEGF, 100 ng/mlbFGF, 100 ng/ml hSCF (R&D 255-SC-010), 25 ng/ml hFlt3 Ligand (R&D 308-FKN-005). Day 7 media: 74% IMDM, 24% Hams F12, 1% B27 supplement, 0.5% N2-supplement, 0.5% BSA, 50 ng/ml hVEGF, 100 ng/ml bFGF, 100 ng/ml hSCF, 25 ng/ml hFlt3 Ligand, 50 ng/ml hTPO (Genentech G140BT), 10 ng/ml IL-6 (R&D 206-IL-010), 0.5 U/ml hEPOgen and 0.2 uM 6-formylindolo[3,2-b]carbazole (FICZ) (Santa Cruz SC300019). After Day 7, 0.5 ml of Day 7 media was added to the culture daily without aspirating the media from the previous day. All base media mixes included 2 mM L-Glutamine (Invitrogen 25030081), 4×10^-4M Monothioglycerol (Sigma M1753), 100 ug/ml Primocin, and 50 ug/ml Ascorbic Acid. Cells in suspension were collected and assayed at Days 10-13 or split for long-term culture.
as §1

iPSC-derived MEPs [5] = assay: Immunophenotyping of MEP lineage specification (CD235, CD71, CD41 FACS); conditions: day 30 MEPs, basal cytokine conditions, versus vehicle
Method: as §3
In our previous studies in which we noted exponential expansion of iPSC-derived MEPs (FIG. 3), the AhR-mediated effect that we noted allowed us to culture cells for extended periods of time (>120 days). […]

AhR = assay: Lentiviral AhR reporter (MMTV-DRE dsRed / luciferase) in MEPs; conditions: day 30 MEPs, 0.2 μM FICZ plus 5 μM CH223191

SMILES: O=c1cc(-c2ccccc2)oc2ccc3ccccc3c12 [(3-NF, P-naphtoflavone]
- responsiveness to AhR agonist (CYP1B1 RT-PCR) ([1]; MEP, normalized to GAPDH): responsive
- responsiveness to AhR agonist (CYP1B1 RT-PCR) [2]: responsive

SMILES: Cc1ccccc1N=Nc1ccc(NC(=O)c2ccnn2C)c(C)c1 [CH223191, 2-methyl-2H-pyrazole-3-carboxylic acid (2-methyl-4-o-tolylazo-phenyl)-amide]
- percentage of PI+ cells, vehicle versus FICZ-treated cultures (iPSC-derived MEPs [3]): approximately the same
- CYP1B1 induction by FICZ ([1]; MEPs pretreated with CH223191 at D6, FICZ at D7): block
- expansion of MEPs (iPSC-derived MEPs [4]; 2.5 μM CH223191 pre-treatment before addition of FICZ): still capable of expansion
- expansion of MEPs (iPSC-derived MEPs [4]; 5 μM CH223191 pre-treatment + FICZ): No significant expansion
- CD41+ megakaryocyte-lineage cells (iPSC-derived MEPs [5]): small but defined population
- DsRed reporter expression (AhR): significant decrease

SMILES: Clc1cc2c(cc1Cl)Oc1cc(Cl)c(Cl)cc1O2 [TCDD, 2,3,7,8-tetrachlorodibenzo(p)dioxin]
- responsiveness to AhR agonist (CYP1B1 RT-PCR) ([2]; iPSC treated for 4 days, normalized to GAPDH): responsive
